Assays:
STEME=Stellaria media = assay: Greenhouse weed control trial STEME; assay type: in vivo; conditions: 25 DAA
Excerpt: (§1) The respective (combinations of) materials were applied to weed plants in the greenhouse or in the field at the respective growth stage indicated hereinafter for the different weed species mentioned below. The respective (combinations of) active ingredients were also applied to corn, cotton and soybean crop plants, and the selectivity (damage) in these crop plants rated (assessed).
(§2) Visual scoring of the damage to the trial plants took place after the time mentioned in the respective Table—indicated in number of Days After Application (DAA). Damage and development of all above-ground parts of the respective plants was recorded. Visual rating was done on a percentage scale in relation to the untreated control (100%=all plants dead; 50%=green plant biomass reduced by 50%, and 0%=no discernible difference=like control plot).
(§3) The trials in the greenhouse were sprayed with an application volume of 300 L/ha with an automated track sprayer. The plots in the field were sprayed with an application volume of 140 L/ha with a hand held spray boom.
(§4) In greenhouse selectivity trials and trials herbicidal activity trials against weed plants were investigated in post-emergence application of the respective material(s).
(§5) Herbicidal activity against different weeds (undesired plants) was calculated as follows.
(§6) wherein • A, B=respective value in percent of active ingredient A at a dose rate of a g/ha, ingredient B at a dose rate of b g/ha • E^C=Expected value according to Colby (S. R. Colby; Weeds 15 (1967), 20-22) in % at a dose rate of a+b, each in g/ha • Δ=Difference (in %) between measured value E and expected value E^C (%) (measured value minus expected value)
(§7) • measured value E is greater than E^C:->synergism (+Δ) • measured value E is equal to E^C:->additive effect • measured value E is smaller than E^C:->antagonism (−Δ)
(§8) The weed control activity of different (combinations of) materials was investigated in greenhouse trials for the following weed species: • STEME=Stellaria media • ECHCG=Echinochloa crus-galli • BROTE=Bromus tectorum
(§9) Phenmedipham amd Mesotrione were applied at varying application rates (Dose Rate) to the weed plant species STEME, ECHCG and BROTE. The results are shown in Tables 2a to 2c as the % control when assessed 25 days after application (25 DAA).
(§10) In all the trials of Table Tables 2a to 2c Mero® (rapeseed oil methyl ester) was added to the respective spray mixture in an amount corresponding to 1 L/ha for PMP, 1 L/ha for MST, and 2 L/ha for mixtures of PMP+MST.

[1] = test system: ECHCG=Echinochloa crus-galli; assay: Greenhouse weed control trial ECHCG; assay type: in vivo; conditions: 25 DAA
Excerpt: as §1, §2, §3, §4, §5, §6, §7, §8, §9, §10

BROTE=Bromus tectorum = assay: Greenhouse weed control trial BROTE; assay type: in vivo; conditions: 25 DAA
Excerpt: as §1, §2, §3, §4, §5, §6, §7, §8, §9, §10

[2] = test system: corn (Zea mays subsp. amylacea, ZEAMA); assay: Greenhouse selectivity trial, post-emergence, corn; assay type: in vivo; conditions: 8 DAA
Excerpt: as §1, §2, §3, §4
(§11) Phenmedipham was applied at varying application rates (Dose Rate) to the crop plants of corn (Zea mays subsp. amylacea, ZEAMA), soybean (Glycine max, GLXMA) and cotton (Gossypium hirsutum, GOSHI) at a BBCH growth stage of the plants of BBCH 13 and the crop safety (crop injury, damage) assessed. The results are shown in Table 1 as the % damage when assessed 8 days after application (8 DAA).
(§12) In all the selectivity trials of Table 1 the adjuvant Mero® (rapeseed oil methyl ester) was added to the respective spray mixture in an amount corresponding to 1 L/ha.

[3] = test system: soybean (Glycine max, GLXMA); assay: Greenhouse selectivity trial, post-emergence, soybean; assay type: in vivo; conditions: 8 DAA
Excerpt: as §1, §2, §3, §4, §11, §12

[4] = test system: cotton (Gossypium hirsutum, GOSHI); assay: Greenhouse selectivity trial, post-emergence, cotton; assay type: in vivo; conditions: 8 DAA
Excerpt: as §1, §2, §3, §4, §11, §12

soybean (GLXMA) = assay: Damage in soybean in the field trials of Tables 4a to 4e; assay type: in vivo, Glycine max; conditions: PMP applied to GLXMA at growth stage BBCH 14, field trials of Tables 4a to 4e, each case
Procedure: In the field trials of Tables 4a to 4e also the damage in soybean was assessed when PMP was applied to GLXMA at growth stage BBCH 14. The damage observed in each case was agronomically acceptable, i.e. below 15%.

CS(=O)(=O)c1ccc(C(=O)C2C(=O)CCCC2=O)c([N+](=O)[O-])c1 [MST, 2-[4-(methylsulfonyl)-2-nitrobenzoyl]cyclohexane-1,3-dione]
% control STEME (STEME=Stellaria media; 12.5 g/ha): 89%
% control STEME (STEME=Stellaria media; 25 g/ha): 99%
% control STEME (STEME=Stellaria media; 50 g/ha): 99%
% control STEME (STEME=Stellaria media; 75 g/ha): 99%
% control ECHCG ([1]; 12.5 g/ha): 15%
% control ECHCG ([1]; 25 g/ha): 28%
% control ECHCG ([1]; 50 g/ha): 70%
% control ECHCG ([1]; 75 g/ha): 70%
% control BROTE (BROTE=Bromus tectorum; 12.5 g/ha): 30%
% control BROTE (BROTE=Bromus tectorum; 25 g/ha): 30%
% control BROTE (BROTE=Bromus tectorum; 50 g/ha): 35%
% control BROTE (BROTE=Bromus tectorum; 75 g/ha): 40%

COC(=O)Nc1cccc(OC(=O)Nc2cccc(C)c2)c1 [PMP, 3-[(methoxyformyl)amino]phenyl (3-methylphenyl)carbamate]
% damage ZEAMA (corn) ([2]; 12.5 g/ha): 0%
% damage ZEAMA (corn) ([2]; 25 g/ha): 0%
% damage ZEAMA (corn) ([2]; 75 g/ha): 7%
% damage ZEAMA (corn) ([2]; 125 g/ha): 0%
% damage ZEAMA (corn) ([2]; 200 g/ha): 15%
% damage ZEAMA (corn) ([2]; 300 g/ha): 30%
% damage GLXMA (soybean) ([3]; 12.5 g/ha): 2%
% damage GLXMA (soybean) ([3]; 25 g/ha): 3%
% damage GLXMA (soybean) ([3]; 75 g/ha): 0%
% damage GLXMA (soybean) ([3]; 125 g/ha): 5%
% damage GLXMA (soybean) ([3]; 200 g/ha): 18%
% damage GLXMA (soybean) ([3]; 300 g/ha): 20%
% damage GOSHI (cotton) ([4]; 12.5 g/ha): 0%
% damage GOSHI (cotton) ([4]; 25 g/ha): 0%
% damage GOSHI (cotton) ([4]; 75 g/ha): 3%
% damage GOSHI (cotton) ([4]; 125 g/ha): 6%
% damage GOSHI (cotton) ([4]; 200 g/ha): 6%
% damage GOSHI (cotton) ([4]; 300 g/ha): 14%
% control STEME (STEME=Stellaria media; 12.5 g/ha): 0%
% control STEME (STEME=Stellaria media; 25 g/ha): 0%
% control STEME (STEME=Stellaria media; 50 g/ha): 0%
% control STEME (STEME=Stellaria media; 75 g/ha): 0%
% control STEME (STEME=Stellaria media; 100 g/ha): 0%
% control STEME (STEME=Stellaria media; 125 g/ha): 25%
% control STEME (STEME=Stellaria media; 300 g/ha): 77%
% control ECHCG ([1]; 12.5 g/ha): 0%
% control ECHCG ([1]; 25 g/ha): 0%
% control ECHCG ([1]; 50 g/ha): 0%
% control ECHCG ([1]; 75 g/ha): 0%
% control ECHCG ([1]; 100 g/ha): 0%
% control ECHCG ([1]; 125 g/ha): 0%
% control ECHCG ([1]; 300 g/ha): 10%
% control BROTE (BROTE=Bromus tectorum; 12.5 g/ha): 0%
% control BROTE (BROTE=Bromus tectorum; 25 g/ha): 0%
% control BROTE (BROTE=Bromus tectorum; 50 g/ha): 9%
% control BROTE (BROTE=Bromus tectorum; 75 g/ha): 0%
% control BROTE (BROTE=Bromus tectorum; 100 g/ha): 0%
% control BROTE (BROTE=Bromus tectorum; 125 g/ha): 0%
% control BROTE (BROTE=Bromus tectorum; 300 g/ha): 20%
damage in soybean (soybean (GLXMA)): below 15%

Reference: patent US20250040554A1, “NEW USES OF PHENMEDIPHAM AND HERBICIDAL COMBINATIONS COMPRISING PHENMEDIPHAM” (BAYER AKTIENGESELLSCHAFT, priority 2021, published 2025)
